Results: patent US20070197512A1, “Carboxylic Acid Compounds and Use Thereof” (Japan Tobacco Inc., priority 2006, published 2007)

Tests used:
human URAT1 = molecular target: T1, human URAT1 (Homo sapiens, UniProt Q96S37); experiment: Uric acid transport inhibitory test using human URAT1-expressing cells; assay type: cell-based; settings: human URAT1-expressing HEK293 cells, 14C-uric acid 50 μM, uptake 5 min, room temperature; read-out: hURAT1 IC50
T1 construct: Human URAT1 full length cDNA was subcloned to expression vector pcDNA3.1; expressed in transfected cells; host or cells: HEK293 cells (pcDNA3.1, geneticin-selected)
T1 sequence (Q96S37 1-553): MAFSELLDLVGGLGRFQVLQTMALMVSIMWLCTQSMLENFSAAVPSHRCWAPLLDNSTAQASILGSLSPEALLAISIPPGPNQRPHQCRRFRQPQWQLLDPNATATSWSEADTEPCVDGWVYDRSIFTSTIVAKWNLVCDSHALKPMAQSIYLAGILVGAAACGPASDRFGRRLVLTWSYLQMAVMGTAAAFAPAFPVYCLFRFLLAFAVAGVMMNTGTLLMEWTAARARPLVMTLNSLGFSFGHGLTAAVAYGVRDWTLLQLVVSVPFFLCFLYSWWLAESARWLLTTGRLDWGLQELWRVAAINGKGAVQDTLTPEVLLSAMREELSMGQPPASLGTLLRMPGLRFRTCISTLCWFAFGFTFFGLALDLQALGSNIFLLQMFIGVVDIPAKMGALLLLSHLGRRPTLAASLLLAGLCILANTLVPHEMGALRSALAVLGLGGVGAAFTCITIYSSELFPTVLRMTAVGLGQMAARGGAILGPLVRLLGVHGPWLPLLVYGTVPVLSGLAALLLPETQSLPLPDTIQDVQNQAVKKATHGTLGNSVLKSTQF
Excerpt: Experimental Example 1 Uric Acid Transport Inhibitory Test Using Human URAT1-Expressing Cells
Human URAT1 full length cDNA was subcloned to expression vector pcDNA3.1 and human URAT1 gene was transfected into human embryonic kidney derived cell line (HEK293 cells) by liposome method using Lipofectamine2000. Simultaneously, HEK293 cells transfected with expression vector pcDNA3.1 alone (hereinafter mock cells) were also produced. HEK293 cells expressing human URAT1 gene or mock cells were selected with geneticin resistance as an index. The functional expression of human URAT1 gene was confirmed by a method similar to the following method, using ^14C-uric acid transport into the cells as an index.
Human URAT1-expressing HEK293 cells or mock cells were cultured in Dulbecco's modified Eagle's MEM medium (high glucose) containing 10% fetal bovine serum, 0.5 mg/mL geneticin sulfate, 100 units/mL penicillin and 100 μg/mL streptomycin under the conditions of 37° C. and 5% CO2 in an incubator. The cells were plated in a 96 well plate (poly-D-Lysine coated) at 1×10^5 cells/well and the following uric acid transport inhibitory test was performed 24 hr later. This test was performed at room temperature.
After the medium was removed by aspiration from each well, the cells were washed once with Hank's Balanced Salt Solution (HBSS) and preincubated with HBSS (100 μL/well) for 5 min. HBSS was aspirated and an assay buffer (wherein NaCl in the above-mentioned HBSS had been substituted with Na-gluconate) containing various concentrations of the Example compound and a radioactive ligand (14C-uric acid; final concentration 50 μM) was added to each well at 50 μL/well and an uptake reaction was carried out for 5 min. After the reaction, the cells were washed twice with ice-cold HBSS (150 μL/well), and Microscinti™ 20 (PerkinElmer) was added at 50 μL/well. The cells were lysed by stirring and the radioactivity of each well was measured by a liquid scintillation counter (TOP COUNT, Packard).
The uric acid transport rate (%) of the Example compound at each concentration was calculated relative to the radioactivity (difference in radioactivity between human URAT1-expressing HEK293 cells and mock cells without addition of Example compound (DMSO addition)) showing URAT1 specific uric acid transport as 100%, and the concentration (IC50) of the Example compound necessary for inhibiting the uric acid transport rate by 50% was determined. In Table 24-Table 27, “+++” means IC50 value of less than 300 nM, “++” means IC50 value of 300 nM to less than 3000 nM, and “+” means IC50 value of not less than 3000 nM.

CYP2C9 = molecular target: T2, CYP2C9 (Homo sapiens, UniProt P11712); experiment: CYP inhibitory test using human liver microsome; assay type: in vitro ADME; settings: model substrate diclofenac, 37° C., 10 min, read-out: CYP2C9 inhibition, IC50
T2 construct: Human liver microsome (20 mg protein/mL, 5 μL, Xenotech LLC, purchased from Lenexa Kans.); tissue Xenotech LLC; host or cells: human liver microsomes
Method: Experimental Example 2 CYP Inhibitory Test Using Human Liver Microsome
Human liver microsome (20 mg protein/mL, 5 μL, Xenotech LLC, purchased from Lenexa Kans.) was suspended in 100 mM potassium phosphate buffer (70 μL, pH 7.4), mixed with a solution (0.5 μL) of the Example compound dissolved in DMSO and preincubated at 37° C. for 5 min. NADPH producing system coenzyme solution (β-nicotinamide adenine dinucleotide phosphate: 5.2 mM, D-glucose-6-phosphate: 13.2 mM, magnesium chloride: 13.2 mM, glucose-6-phosphate dehydrogenase: 1.8 U/mL) 25 μL, and a model substrate (CYP3A4: midazolam 1 mM, CYP2D6: bufuralol 1 mM, CYP2C9: diclofenac 2 mM) 0.5 μL dissolved in DMSO were added to start the reaction. After incubation at 37° C. for 10 min., acetonitrile (200 μL) containing an internal standard substance (propranolol 1 μM) was added and the mixture was centrifuged (room temperature, 3000 rpm, 20 min). The amount of the metabolite produced from each model substrate in the supernatant was measured by high performance liquid chromatography/mass spectrometry (LC/MS/MS) and each CYP enzyme activity was determined. The concentration showing 50% inhibition (IC50) was calculated relative to the enzyme activity without addition of Example compound (DMSO 0.5 μL added) as 100%.
As a comparative example, the CYP enzyme activity of the compound described in JP-A-3-135917 was examined by determining the IC50 value in the same manner as above.

T2 sequence (P11712 whole entry): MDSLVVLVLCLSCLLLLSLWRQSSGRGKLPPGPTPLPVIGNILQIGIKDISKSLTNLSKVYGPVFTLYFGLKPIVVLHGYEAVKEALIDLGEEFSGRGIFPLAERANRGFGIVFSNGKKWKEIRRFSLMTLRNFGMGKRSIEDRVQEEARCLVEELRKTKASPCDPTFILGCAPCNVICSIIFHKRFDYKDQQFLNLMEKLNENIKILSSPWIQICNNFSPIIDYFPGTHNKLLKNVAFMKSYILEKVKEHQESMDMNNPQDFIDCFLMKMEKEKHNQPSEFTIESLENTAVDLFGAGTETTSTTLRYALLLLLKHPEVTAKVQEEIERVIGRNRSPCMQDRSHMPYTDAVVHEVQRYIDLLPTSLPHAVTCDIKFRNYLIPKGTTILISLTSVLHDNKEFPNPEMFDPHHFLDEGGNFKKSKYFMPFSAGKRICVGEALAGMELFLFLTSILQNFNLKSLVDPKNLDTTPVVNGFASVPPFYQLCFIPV

IC50 (human URAT1) [µM]	IC50 (CYP2C9) [µM]	SMILES
0.3 to 3	> 50	CC(C)c1cccc2c1OC(C(C)C)C(=S)N2CCC(=O)O (stereo not shown) [Example 16, 3-(2,8-diisopropyl-3-thioxo-2,3-dihydrobenzo[1,4]oxazin-4-yl)propionic acid]
0.3 to 3	> 50	Cc1cc(Cl)cc2c1OC(c1ccccc1)CN2C(=O)/C=C/C(=O)O (stereo not shown) [Example 84, (E)-4-(6-chloro-8-methyl-2-phenyl-2,3-dihydrobenzo[1,4]oxazin-4-yl)-4-oxo-2-butenoic acid]
0.3 to 3	> 50	Cc1cc(Cl)cc2c1OC(C(C)C)CN2C(=O)/C=C/C(=O)O (stereo not shown) [Example 83, (E)-4-(6-chloro-2-isopropyl-8-methyl-2,3-dihydrobenzo[1,4]oxazin-4-yl)-4-oxo-2-butenoic acid]
≥ 3	> 50	Cc1ccc2c(c1)OC(C(C)C)CN2C(=O)/C=C/C(=O)O (stereo not shown) [Example 56, (E)-4-(2-isopropyl-7-methyl-2,3-dihydrobenzo[1,4]oxazin-4-yl)-4-oxo-2-butenoic acid]
0.3 to 3	> 50	CC(C)c1cccc2c1OC(C(C)C)C(=O)N2CCC(=O)O (stereo not shown) [Example 14, 3-(2,8-diisopropyl-3-oxo-2,3-dihydrobenzo[1,4]oxazin-4-yl)propionic acid]
< 0.3	> 50	Cc1cc(C)c2c(c1)N(CCC(=O)O)C(=O)[C@@H](C(C)C)O2 [Example 74, 3-((R)-2-isopropyl-6,8-dimethyl-3-oxo-2,3-dihydrobenzo[1,4]oxazin-4-yl)propionic acid]
≥ 3	> 50	Cc1cccc2c1OC(c1ccccc1)CN2C(=O)/C=C/C(=O)O (stereo not shown) [Example 55, (E)-4-(8-methyl-2-phenyl-2,3-dihydrobenzo[1,4]oxazin-4-yl)-4-oxo-2-butenoic acid]
≥ 3	30	CC(C)c1cccc2c1OC(C(C)C)C(=O)N2CC(=O)O (stereo not shown) [Example 9, (2,8-diisopropyl-3-oxo-2,3-dihydrobenzo[1,4]oxazin-4-yl)acetic acid]
0.3 to 3	> 50	CC(C)c1cccc2c1OC(C(C)C)CN2C(=O)/C=C/C(=O)O (stereo not shown) [Example 36, (E)-4-(2,8-diisopropyl-2,3-dihydrobenzo[1,4]oxazin-4-yl)-4-oxo-2-butenoic acid]
< 0.3	> 50	CCc1cc(C)c2c(c1)N(CCC(=O)O)C(=O)C(C(C)C)O2 (stereo not shown) [Example 101, 3-(6-ethyl-2-isopropyl-8-methyl-3-oxo-2,3-dihydrobenzo[1,4]oxazin-4-yl)propionic acid]
≥ 3	> 50	Cc1cccc2c1OC(C(C)C)CN2C(=O)/C=C/C(=O)O (stereo not shown) [Example 54, (E)-4-(2-isopropyl-8-methyl-2,3-dihydrobenzo[1,4]oxazin-4-yl)-4-oxo-2-butenoic acid]
0.3 to 3	> 50	CC(C)[C@@H]1Oc2c(Cl)cc(Cl)cc2N(CCC(=O)O)C1=O [Example 111, 3-((S)-6,8-dichloro-2-isopropyl-3-oxo-2,3-dihydrobenzo[1,4]oxazin-4-yl)propionic acid]
< 0.3		CC(C)C1Oc2ccc(Cl)cc2N(CCC(=O)O)C1=O (stereo not shown) [Example 63, 3-(6-chloro-2-isopropyl-3-oxo-2,3-dihydrobenzo[1,4]oxazin-4-yl)propionic acid]
0.3 to 3		Cc1ccc2c(c1)OC(C(C)C)C(=O)N2CCC(=O)O (stereo not shown) [Example 43, 3-(2-isopropyl-7-methyl-3-oxo-2,3-dihydrobenzo[1,4]oxazin-4-yl)propionic acid]
≥ 3		Cc1cc(C)c2c(c1)N(CCC(=O)O)C(=O)C(C)(C)O2 [Example 89, 3-(2,2,6,8-tetramethyl-3-oxo-2,3-dihydrobenzo[1,4]oxazin-4-yl)propionic acid]
≥ 3		O=C(O)CN1C(=S)CSc2ccccc21 [Example 12, (3-thioxo-2,3-dihydrobenzo[1,4]thiazin-4-yl)acetic acid]
≥ 3		CC(C)c1cccc2c1OCC(=O)N2CCC(=O)O [Example 35, 3-(8-isopropyl-3-oxo-2,3-dihydrobenzo[1,4]oxazin-4-yl)propionic acid]
≥ 3		CC(C)C1Oc2ccccc2N(CC(=O)O)C1=O (stereo not shown) [Example 6, (2-isopropyl-3-oxo-2,3-dihydrobenzo[1,4]oxazin-4-yl)acetic acid]
≥ 3		CC(C)c1cccc2c1OC(C)(C)C(=O)N2CC(=O)O [Example 34, (8-isopropyl-2,2-dimethyl-3-oxo-2,3-dihydrobenzo[1,4]oxazin-4-yl)acetic acid]
0.3 to 3		CCC1Oc2c(C(C)C)cccc2N(CCC(=O)O)C1=O (stereo not shown) [Example 40, 3-(2-ethyl-8-isopropyl-3-oxo-2,3-dihydrobenzo[1,4]oxazin-4-yl)propionic acid]
≥ 3		Cc1cc(C)c2c(c1)N(CCC(=O)O)C(=O)C(C)O2 (stereo not shown) [Example 86, 3-(2,6,8-trimethyl-3-oxo-2,3-dihydrobenzo[1,4]oxazin-4-yl)propionic acid]
	16	CC(C)c1cccc2c1OC(C(C)C)C(=S)N2CC(=O)O (stereo not shown) [Comparative Example, reference compound]
≥ 3		CC(C)c1cccc2c1OCC(=S)N2CC(=O)O [Example 15, (8-isopropyl-3-thioxo-2,3-dihydrobenzo[1,4]oxazin-4-yl)acetic acid]
0.3 to 3		CC(C)C1Oc2cc(Cl)ccc2N(CCC(=O)O)C1=O (stereo not shown) [Example 62, 3-(7-chloro-2-isopropyl-3-oxo-2,3-dihydrobenzo[1,4]oxazin-4-yl)propionic acid]
≥ 3		O=C(O)CCN1C(=O)COc2ccccc21 [Example 19, 3-(3-oxo-2,3-dihydrobenzo[1,4]oxazin-4-yl)propionic acid]
≥ 3		CC(C)c1cccc2c1OC(C(C)C)CN2C(=O)C(=O)O (stereo not shown) [Example 29, (2,8-diisopropyl-2,3-dihydrobenzo[1,4]oxazin-4-yl)oxoacetic acid]
0.3 to 3		CC(C)(C)c1cccc2c1OC(c1ccccc1)C(=O)N2CCC(=O)O (stereo not shown) [Example 49, 3-(8-tert-butyl-3-oxo-2-phenyl-2,3-dihydrobenzo[1,4]oxazin-4-yl)propionic acid]
≥ 3		COC(=O)CN1C(=O)CSc2ccccc21 [Example 2, (3-oxo-2,3-dihydrobenzo[1,4]thiazin-4-yl)acetic acid methyl ester]
